Reference: patent publication EP4813463A2, “TYK2 INHIBITORS AND COMPOSITIONS AND METHODS THEREOF” (Lynk Pharmaceuticals Co. Ltd., priority 2023, dated 2024)
Converted amounts (≈) assume the structure as drawn. Read-outs that look alike come from different tables or passages of the source.

Columns and labels:
[1] = Kinetic solubility; format: physicochemical; details: kinetic from dmso stock, 100 mM pH 7.4 phosphate buffer, 1% DMSO, room temperature, read-out: Kinetics Solubility_PBS7.4
Outline: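 Compounds diluted from 10 mM/5 mM DMSO stocks into 100 mM phosphate buffer pH 7.4 (1% DMSO final), shaken 2 h at room temperature, then centrifuged. Dissolved compound in supernatant quantified by LC-MS/MS against a standard curve.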

[2] = molecular target: T1, TYK2-JH2 domain (Homo sapiens, UniProt P29597); experiment: Binding activity test for JH2 domain of TYK2 (Tb-antibody/tracer FRET)
T1 construct: JAK1-JH2 domain or TYK2-JH2 domain enzyme in assay buffer
Outline: (§1)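 Competitive TR-FRET binding: compounds dispensed as an 11-point 3-fold dilution series, then Tb-labelled antibody and tracer added to the JH2 protein system. Incubated at 25°C, then overnight at 4°C; FRET signal read on Envision and IC50 (nM) derived.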

[3] = system: Ba/F3-FL-TYK2-P760L cells; experiment: Anti-proliferative assay in engineered Ba/F3 cells (Cell-Titer Glo, 72 h); format: cell-based; details: Mus musculus, concentration that causes 50% growth inhibition, read-out: Baf3-FL-T2P760L
Outline: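 Ba/F3 cells carrying Tel-dimerization/JAK kinase fusion, IL-3-independent, in RPMI-1640 + 10% FBS; 9-point 3-fold dilutions from 20 µM (0.1% DMSO) added after 24 h, 72 h at 37 °C. Viability by Cell-Titer Glo ATP luminescence; % inhibition versus DMSO cells, blank-corrected, giving IC50.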

[4] = molecular target: T2, JAK1-JH2 domain (Homo sapiens, UniProt P23458); experiment: Binding activity test for JH2 domain of JAK1 (Tb-antibody/tracer FRET)
T2 construct: JAK1-JH2 domain or TYK2-JH2 domain enzyme in assay buffer
Outline: as §1

[5] = Microsomal metabolic stability assay; format: in vitro ADME; details: human, liver microsomes, 0.5 mg/mL microsomal protein, 1 µM test article, 2 mM NADPH; for microsomal CLint at 1 µM: read-out: Human LM Clint; for half-life at 1 µM: read-out: Human LM T1/2
Outline: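 Test or control compound (1 µM) incubated with microsomes (0.5 mg/mL protein) in 100 mM potassium phosphate pH 7.4, 1.0 mM EDTA at 37°C, started with NADPH regenerating system (2 mM NADPH). Sampled at 0, 5, 15, 30, 45 min, acetonitrile-quenched, LC/MS/MS. T1/2 from ln %remaining vs time slope; CLint = 0.693/T1/2 per mg protein/mL.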

[6] = system: IFNa pSTAT1; experiment: Phosphorylation of STAT1 inhibition in HMC3 cells by Jess; format: cell-based; details: Homo sapiens; HMC3 microglia cells, 50ng/mL hINFα 1 hour, Jess western; read-out: Jess_HMC3 IC50 (IFNa pSTAT1)
Experimental: Seeding HMC3 cells into 12-well plate and incubate overnight. Pre-stimulation with recombinant human IFNα (Sino biological, H08Y), treat cells with compound with different concentration for 1hr. After compound treatment, stimulate HMC3 cells with 50ng/mL hINFα for another 1 hour (for CCF-STTG1 cells IFNα induction time is 30 mins). And then wash cells with DPBS once gently and lyse cells with pre-cooled RIPA buffer (Sigma, R0278-500ML) for 30min on ice to harvest cells. Centrifuge cell lysate for 20 mins at 12000rpm with freezer centrifuge (Thermo Scientific, Heraeus Fresco 21) to extract protein. Prepare samples with Jess Simple Wes kit (SM-WO04) and then run western blot on Jess simple western system (Protein simple, JS-4631). Collect data and analyzed with GraphPad Prism.

[7] = phosphate buffer, pH 7.4, aqueous buffer
[8] = JH2 domain enzyme; 60 min at 25°C, then 4°C overnight; read-out: TYK2 JH2 Binding IC50
[9] = ratio of JAK1 JH2 to TYK2 JH2 binding IC50
[10] = BaF3, 72 h, 72 h compound treatment
[11] = JH2 domain enzyme; 60 min at 25°C, then 4°C overnight; read-out: JAK1 JH2 Binding IC50

T1 sequence (P29597 589-875 limits assumed): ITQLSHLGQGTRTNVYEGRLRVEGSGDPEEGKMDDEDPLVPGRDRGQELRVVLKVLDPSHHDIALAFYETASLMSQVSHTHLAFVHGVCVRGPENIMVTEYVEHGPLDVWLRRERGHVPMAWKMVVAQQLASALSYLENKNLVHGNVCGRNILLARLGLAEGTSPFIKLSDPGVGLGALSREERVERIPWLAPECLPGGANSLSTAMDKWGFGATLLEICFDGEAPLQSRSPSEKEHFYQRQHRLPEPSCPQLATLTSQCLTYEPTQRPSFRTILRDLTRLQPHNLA
T2 sequence (P23458 583-855 limits assumed): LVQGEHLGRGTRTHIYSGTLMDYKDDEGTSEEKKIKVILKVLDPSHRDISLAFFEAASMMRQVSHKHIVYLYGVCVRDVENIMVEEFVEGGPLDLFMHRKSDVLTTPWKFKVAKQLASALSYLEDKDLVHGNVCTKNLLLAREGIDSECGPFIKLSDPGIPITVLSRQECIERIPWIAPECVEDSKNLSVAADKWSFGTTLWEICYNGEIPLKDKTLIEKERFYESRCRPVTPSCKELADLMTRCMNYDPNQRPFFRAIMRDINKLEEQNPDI

Row | SMILES | solubility kinetic at 2 h [1, 7] [µM] | IC50 [2, 8] [nM] | JAK1/TYK2 selectivity [2, 9] | IC50 [3, 10] [nM] | IC50 [4, 11] [nM] | microsomal CLint at 1 µM ([5]; pH 7.4) [µL/min/mg] | half-life at 1 µM ([5]; pH 7.4) [h] | IC50 [6] [nM] | solubility kinetic at 2 h ([1]; aqueous buffer) [µM] | IC50 ([2]; read-out: TYK2 JH2 Binding IC50; JH2 domain enzyme; 60 min at 25°C, then 4°C overnight) [nM] | IC50 ([3]; BaF3, 72 h compound treatment) [nM] | IC50 ([4]; read-out: JAK1 JH2 Binding IC50; JH2 domain enzyme; 60 min at 25°C, then 4°C overnight) [nM] | microsomal CLint at 1 µM [5] [µL/min/mg]
1 | [2H]C([2H])([2H])NC(=O)c1cnc(Nc2ccn(C)n2)cc1Nc1cnn2ccc([C@H](O)C(F)(F)F)c(OC)c12 [Example 21, (S)-4-((4-methoxy-5-(2,2,2-trifluoro-1-hydroxyethyl)pyrazolo[1,5-a]pyridin-3-yl)amino)-N-(methyl-d3)-6-((1-methyl-1H-pyrazol-3-yl)amino)nicotinamide] | 57.2 (≈ 28.2 µg/mL) | 0.077 | 142.7 | 15.7 | 11 | 22.8 | 1.01 |  |  |  |  |  | 
2 | [2H]C([2H])([2H])NC(=O)c1cnc(NC(=O)C2CC2)cc1Nc1cnn2ccc([C@@H](O)C(F)(F)F)c(OC)c12 [Example 7B, (R)-6-(cyclopropanecarboxamido)-4-((4-methoxy-5-(2,2,2-trifluoro-1-hydroxyethyl)pyrazolo[1,5-a]pyridin-3-yl)amino)-N-(methyl-d3)nicotinamide] | 55.8 (≈ 26.9 µg/mL) | 0.528 | 24.4 | 223 | 12.9 | 10.8 | 2.14 |  |  |  |  |  | 
3 | [2H]C([2H])([2H])NC(=O)c1cnc(NC(=O)C2CC2)cc1Nc1nn(C)c2ccc([C@H](OC([2H])([2H])[2H])C(F)(F)F)c(OC)c12 [Example 55A, (S)-6-(cyclopropanecarboxamido)-4-((4-methoxy-1-methyl-5-(2,2,2-trifluoro-1-(methoxy-d3)ethyl)-1H-indazol-3-yl)amino)-N-(methyl-d3)nicotinamide] | 7.78 (≈ 3.99 µg/mL) | 0.052 | 48.9 | 0.352 | 2.54 |  |  |  |  |  |  |  | 
4 | [2H]C([2H])([2H])NC(=O)c1cnc(NC(=O)C2CC2)cc1Nc1nn(C)c2ccc([C@H](O)C(F)(F)F)c(OC)c12 [Example 49A, (S)-6-(cyclopropanecarboxamido)-4-((4-methoxy-1-methyl-5-(2,2,2-trifluoro-1-hydroxyethyl)-1H-indazol-3-yl)amino)-N-(methyl-d3)nicotinamide] | 45.5 (≈ 22.5 µg/mL) | 0.107 | 49.3 | 0.464 | 5.28 | 19.3 | 1.19 | 0.084 |  |  |  |  | 
5 | [2H]C([2H])([2H])NC(=O)c1cnc(NC(=O)C2CC2)cc1Nc1cnn2ccc([C@H](OC)C(F)(F)F)c(OC)c12 [Example 27, (S)-6-(cyclopropanecarboxamido)-4-((4-methoxy-5-(2,2,2-trifluoro-1-methoxyethyl)pyrazolo[1,5-a]pyridin-3-yl)amino)-N-(methyl-d3)nicotinamide] | 14.2 (≈ 7.06 µg/mL) | 0.064 | 128.0 | 8.54 | 8.19 |  |  |  |  |  |  |  | 
6 | [2H]C([2H])([2H])NC(=O)c1cnc(NC(=O)C2CC2)cc1Nc1cnn2ccc([C@H](O)C(F)(F)F)c(OC)c12 [Example 7A, (S)-6-(cyclopropanecarboxamido)-4-((4-methoxy-5-(2,2,2-trifluoro-1-hydroxyethyl)pyrazolo[1,5-a]pyridin-3-yl)amino)-N-(methyl-d3)nicotinamide] | 52.1 (≈ 25.1 µg/mL) | 0.097 | 107.6 | 5.4 | 10.4 | 15.6 | 1.48 | 1.04 |  |  |  |  | 
7 | [2H]C([2H])([2H])O[C@@H](c1ccc2c(c(Nc3cc(NC(=O)C4CC4)ncc3C(=O)OC)nn2C)c1OC)C(F)(F)F [Example 50B, Methyl (S)-6-(cyclopropanecarboxamido)-4-((4-methoxy-1-methyl-5-(2,2,2-trifluoro-1-(methoxy-d3)ethyl)-1H-indazol-3-yl)amino)nicotinate] | 7.23 (≈ 3.69 µg/mL) | 0.177 | 162.94 | 2.85 | 28.8 | 10.9 | 2.11 | 9.3 |  |  |  |  | 
8 | [2H]C([2H])([2H])NC(=O)c1nnc(NC(=O)C2CC2)cc1Nc1cnn2ccc([C@H](O)C(F)(F)F)c(OC)c12 [Example 30, (S)-6-(cyclopropanecarboxamido)-4-((4-methoxy-5-(2,2,2-trifluoro-1-hydroxyethyl)pyrazolo[1,5-a]pyridin-3-yl)amino)-N-(methyl-d3)pyridazine-3-carboxamide] | 42 (≈ 20.2 µg/mL) | 0.088 | 124.4 | 7.96 | 10.9 | 17 | 1.36 |  |  |  |  |  | 
9 | COC(=O)c1cnc(NC(=O)[C@@H]2C[C@@H]2F)cc1Nc1nn(C)c2ccc(C(O)C(F)(F)F)c(OC)c12 (single isomer, unassigned) [Example 122A, Methyl 6-((1S,2S)-2-fluorocyclopropane-1-carboxamido)-4-((4-methoxy-1-methyl-5-((S*)-2,2,2-trifluoro-1-hydroxyethyl)-1H-indazol-3-yl)amino) nicotinate] |  |  | 216.29 |  |  |  | 1.49 | 0.239 | 10.3 (≈ 5.27 µg/mL) | 0.072 | 0.8 | 15.6 | 15.5
10 | COC(=O)c1cnc(NC(=O)C2CC2)cc1Nc1nn(C)c2ccc([C@H](OC)C(F)(F)F)c(OC)c12 [Example 45B, Methyl (S)-6-(cyclopropanecarboxamido)-4-((4-methoxy-1-methyl-5-(2,2,2-trifluoro-1-methoxyethyl)-1H-indazol-3-yl)amino)nicotinate] | 9.37 (≈ 4.75 µg/mL) | 0.124 | 197.30 | 2.53 | 24.5 | 18.4 | 1.26 | 4.8 |  |  |  |  | 
11 | [2H]C([2H])([2H])NC(=O)c1cnc(Nc2cc(C)nc(C)n2)cc1Nc1cnn2ccc([C@H](O)C(F)(F)F)c(OC)c12 [Example 25, (S)-6-((2,6-Dimethylpyrimidin-4-yl)amino)-4-((4-methoxy-5-(2,2,2-trifluoro-1-hydroxyethyl)pyrazolo[1,5-a]pyridin-3-yl)amino)-N-(methyl-d3)nicotinamide] | 43 (≈ 22.3 µg/mL) | 0.068 | 169.1 | 5.01 | 11.5 |  |  |  |  |  |  |  | 
12 | COC(=O)c1cnc(NC(=O)C2CC2)cc1Nc1nn(C)c2ccc([C@H](O)C(F)(F)F)c(OC)c12 [Example 48A, Methyl (S)-6-(cyclopropanecarboxamido)-4-((4-methoxy-1-methyl-5-(2,2,2-trifluoro-1-hydroxyethyl)-1H-indazol-3-yl)amino)nicotinate] | 6.98 (≈ 3.44 µg/mL) | 0.145 | 158.89 | 1.5 | 23 |  |  | 1.03 |  |  |  |  | 
